PubChem BioAssay (NCI)
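Results reflect a 48-hour exposure of cells in 96-well plates to compound at five concentrations. The concentration for full growth arrest is given as TGI.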

Experiments:
Assay in all cases: NCI-60 cell line screen, 48 h
[1] = system: HCC-2998 colon
[2] = system: HOP-62 NSCLC
[3] = system: PC-3 prostate
[4] = system: SW-620 colon
[5] = system: SR leukemia
[6] = system: OVCAR-8 ovarian
[7] = system: SK-MEL-2 melanoma
[8] = system: UO-31 renal
[9] = system: OVCAR-4 ovarian
[10] = system: MCF7 breast
[11] = system: CAKI-1 renal
[12] = system: KM12 colon
[13] = system: COLO 205 colon
[14] = system: A549 NSCLC
[15] = system: SK-OV-3 ovarian
[16] = system: MDA-MB-435
[17] = system: SF-539 CNS
[18] = system: NCI-H23 lung
[19] = system: BT-549 breast
[20] = system: HCT-15 colon

Compound	TGI [1]	TGI [2]	TGI [3]	TGI [4]	TGI [5]	TGI [6]	TGI [7]	TGI [8]	TGI [9]	TGI [10]	TGI [11]	TGI [12]	TGI [13]	TGI [14]	TGI [15]	TGI [16]	TGI [17]	TGI [18]	TGI [19]	TGI [20]
CC(NC1=CC(=O)c2ncccc2C1=O)C(O)c1ccccc1 (stereo not given)	23.2 µM	25.9 µM	70.5 µM	19.8 µM	> 100 µM	36.2 µM	17.9 µM	17.2 µM	22.3 µM	7.56 µM	16.2 µM	24.8 µM	29.7 µM	12.8 µM	71.7 µM	3.02 µM	19.7 µM	> 19.8 µM	7.25 µM	17.3 µM
COc1cc(N(CCC#N)CCC#N)ccc1/C(N=Nc1ccc(C)cc1)=N/NC(=O)c1cc(Br)ccc1O	50.1 µM	96.5 µM	66.5 µM	> 100 µM	76.3 µM	88 µM	96.5 µM	60.3 µM	63.1 µM	> 100 µM	66.6 µM	44.9 µM	29.1 µM	> 100 µM	> 100 µM	> 100 µM	> 100 µM	39.3 µM	62.6 µM	33 µM
COc1ncnc2c1cnn2Cc1cn(COCC(O)CO)nn1 (stereo not given)	> 100 µM	> 100 µM	> 100 µM	> 100 µM	> 100 µM	> 100 µM	> 100 µM	> 100 µM	> 100 µM	> 100 µM	> 100 µM	> 100 µM	> 100 µM	> 100 µM	> 100 µM	> 100 µM	> 100 µM	> 100 µM	> 100 µM	> 100 µM
COc1ccc2c(c1)c1nn(CCN(C)C)c3ccc4c(=O)n(CCN(C)C)c(=O)n2c4c13	0.0546 µM	0.217 µM	0.262 µM	0.355 µM	0.0522 µM	0.175 µM	0.192 µM	0.329 µM	0.0645 µM	0.198 µM	0.601 µM	0.481 µM	0.182 µM	0.0759 µM	0.304 µM	0.166 µM	1.77 µM	0.231 µM	2.6 µM	0.173 µM
Cc1cccc(/C=N/NC(=S)NCc2ccccn2)n1	> 100 µM	> 78.6 µM	> 100 µM	> 100 µM	> 100 µM	> 100 µM	> 100 µM	60 µM	> 100 µM	> 100 µM	> 100 µM	> 100 µM	> 100 µM	> 100 µM	97.7 µM	> 100 µM	67.9 µM	> 100 µM	> 100 µM	> 100 µM
CCOC(=O)C1(Cc2ccccc2)Cc2cc3c(cc2C1)CCC3	52.8 µM	> 100 µM	> 100 µM	> 100 µM	65.1 µM	> 100 µM	34.3 µM	> 100 µM	98.4 µM	53 µM	> 100 µM	> 100 µM	45.2 µM	> 100 µM	90.9 µM	> 100 µM	> 100 µM	> 100 µM	95.3 µM	> 100 µM
COC(=O)C1Cc2ccc(C)cc2C1=O (stereo not given)	> 100 µM	> 100 µM	> 100 µM	> 100 µM	> 100 µM	> 100 µM	> 100 µM	> 100 µM	> 100 µM	> 100 µM	> 100 µM	> 100 µM	> 100 µM	> 100 µM	> 100 µM	> 100 µM	> 100 µM	> 100 µM	> 100 µM	> 100 µM
O/N=c1/ccn(O)c2ccccc12	0.998 µM	9.43 µM	8.88 µM	11.8 µM	55.8 µM	1.81 µM	3.64 µM	3.93 µM	4.43 µM	7.49 µM	5.99 µM	5.25 µM	4.74 µM	6.74 µM	3.26 µM	17.4 µM	2.41 µM	8.96 µM	3.13 µM	5.21 µM
CC(=O)OC1/C(=C/c2ccc([N+](=O)[O-])cc2)C[C@H]2[C@@H]3CC=C4C[C@@H](OC(C)=O)CC[C@]4(C)[C@H]3CC[C@]12C (stereo not given in full)	> 100 µM	> 100 µM	> 100 µM	> 100 µM	> 20.7 µM	> 100 µM	> 100 µM	> 100 µM	> 100 µM	> 100 µM	> 100 µM	> 100 µM	> 100 µM	> 100 µM	> 100 µM	> 100 µM	> 100 µM	> 100 µM	> 100 µM	> 100 µM
N#Cc1ncn(-c2ccccc2)c1N	> 100 µM	> 100 µM	> 100 µM	> 100 µM	> 100 µM	> 100 µM	> 100 µM	> 100 µM	> 100 µM	> 100 µM	> 100 µM	> 100 µM	> 100 µM	> 100 µM	> 100 µM	> 100 µM	> 100 µM	> 100 µM	> 100 µM	> 100 µM
COc1ccccc1/C=C1\Sc2scc(-c3cccc([N+](=O)[O-])c3)[n+]2C1=O	22.8 µM	27.6 µM	37.4 µM	> 36.4 µM	> 100 µM	24.8 µM	31.3 µM	9.86 µM	43.2 µM	10.3 µM	6.24 µM	25.2 µM	5.19 µM	35.4 µM	26 µM	18.2 µM	3.56 µM	29.6 µM	12.6 µM	5.92 µM
S=C(NNC1=NCCCN1)Nc1ccccc1	> 100 µM	> 100 µM	> 100 µM	> 100 µM	> 100 µM	> 100 µM	> 100 µM	> 100 µM	> 100 µM	> 100 µM	> 100 µM	> 100 µM	> 100 µM	> 100 µM	> 100 µM	> 100 µM	> 100 µM	> 100 µM	> 100 µM	> 100 µM
CCOC(=O)c1cccc(NC(=O)CBr)c1	5.28 µM	3.41 µM	2.94 µM	1.66 µM	0.521 µM	> 21.6 µM	3.2 µM	1.96 µM	3.73 µM	3.3 µM	1.16 µM	3.58 µM	3.29 µM	3.96 µM	3.43 µM	2.51 µM	2.6 µM	2.77 µM	4.15 µM	3.66 µM
